pIC50: −log10 of the molar value.

The subject of the first assay is GM1 production in Jurkat cells. Briefly: cells. Type of assay: cell-based.
Conditions: not given
`CC1(C)Cc2ccc(-c3cccc(OC(F)(F)F)c3)cc2C1NC(=O)O[C@@H]1CN2CCC1CC2` (stereo partly drawn) [Example 80, (S)-quinuclidin-3-yl (2,2-dimethyl-6-(3-(trifluoromethoxy)phenyl)-2,3-dihydro-1H-inden-1-yl)carbamate] showed a pIC50 of 8.39.

Still in this assay, the particulars now being: Homo sapiens, Jurkat, 72 h.
The molecule `CC1(C)Cc2cc(-c3ccc(F)cc3)ccc2C1NC(=O)O[C@@H]1CN2CCC1CC2` (stereo partly drawn) [Example 73, (S)-quinuclidin-3-yl (5-(4-fluorophenyl)-2,2-dimethyl-2,3-dihydro-1H-inden-1-yl)carbamate] showed a negative logarithm of the IC50 (pIC50) of 7.59.

Consider `CC1(C)Cc2cc(-c3ccc(Cl)cc3)ccc2C1NC(=O)O[C@@H]1CN2CCC1CC2` (stereo partly drawn) [Example 74, (S)-quinuclidin-3-yl (5-(4-chlorophenyl)-2,2-dimethyl-2,3-dihydro-1H-inden-1-yl)carbamate], for which the pIC50 was 7.89.

The molecule `CC1(C)Cc2cc(-c3ccc(C(F)(F)F)cc3)ccc2C1NC(=O)O[C@@H]1CN2CCC1CC2` (stereo partly drawn) [Example 75, (S)-quinuclidin-3-yl (2,2-dimethyl-5-(4-(trifluoromethyl)phenyl)-2,3-dihydro-1H-inden-1-yl)carbamate] showed a pIC50 of 8.08. The pIC50 values of the last two molecules are within 0.2 log units of each other.

Molecule `CC1(C)Cc2cc(-c3ccc(OC(F)(F)F)cc3)ccc2C1NC(=O)O[C@@H]1CN2CCC1CC2` (stereo partly drawn) [Example 76, (S)-quinuclidin-3-yl (2,2-dimethyl-5-(4-(trifluoromethoxy)phenyl)-2,3-dihydro-1H-inden-1-yl)carbamate] had a negative logarithm of the IC50 (pIC50) of 8.43.

`CC1(C)Cc2cc(-c3cccc(F)c3)ccc2C1NC(=O)O[C@@H]1CN2CCC1CC2` (stereo partly drawn) [Example 77, (S)-quinuclidin-3-yl (5-(3-fluorophenyl)-2,2-dimethyl-2,3-dihydro-1H-inden-1-yl)carbamate] gave a pIC50 of 8.20.

`CC1(C)Cc2cc(-c3cccc(Cl)c3)ccc2C1NC(=O)O[C@@H]1CN2CCC1CC2` (stereo partly drawn) [Example 78, (S)-quinuclidin-3-yl (5-(3-chlorophenyl)-2,2-dimethyl-2,3-dihydro-1H-inden-1-yl)carbamate] gave a pIC50 of 8.46.

`CC1(C)Cc2cc(-c3cccc(C(F)(F)F)c3)ccc2C1NC(=O)O[C@@H]1CN2CCC1CC2` (stereo partly drawn) [Example 79, (S)-quinuclidin-3-yl (2,2-dimethyl-5-(3-(trifluoromethyl)phenyl)-2,3-dihydro-1H-inden-1-yl)carbamate] had a negative-log IC50 (pIC50) of 8.41.

`CC1(C)Cc2cc(-c3ccccc3F)ccc2C1NC(=O)O[C@@H]1CN2CCC1CC2` (stereo partly drawn) [Example 81, (S)-quinuclidin-3-yl (5-(2-fluorophenyl)-2,2-dimethyl-2,3-dihydro-1H-inden-1-yl)carbamate] had a negative logarithm of the IC50 (pIC50) of 7.91.

As for `CC1(C)Cc2cc(-c3ccccc3Cl)ccc2C1NC(=O)O[C@@H]1CN2CCC1CC2` (stereo partly drawn) [Example 82, (S)-quinuclidin-3-yl (5-(2-chlorophenyl)-2,2-dimethyl-2,3-dihydro-1H-inden-1-yl)carbamate], the pIC50 is 8.49.

With `CC1(C)Cc2cc(-c3ccccc3C(F)(F)F)ccc2C1NC(=O)O[C@@H]1CN2CCC1CC2` (stereo partly drawn) [Example 83, (S)-quinuclidin-3-yl (2,2-dimethyl-5-(2-(trifluoromethyl)phenyl)-2,3-dihydro-1H-inden-1-yl)carbamate], the pIC50 is 8.43.

In the case of `CC1(C)Cc2cc(-c3ccccc3OC(F)(F)F)ccc2C1NC(=O)O[C@@H]1CN2CCC1CC2` (stereo partly drawn) [Example 84, (S)-quinuclidin-3-yl (2,2-dimethyl-5-(2-(trifluoromethoxy)phenyl)-2,3-dihydro-1H-inden-1-yl)carbamate], the negative logarithm of the IC50 (pIC50) was 8.31.

In turn, `Cc1ccc(-c2ccc3c(c2)CC(C)(C)C3NC(=O)O[C@@H]2CN3CCC2CC3)cc1` (stereo partly drawn) [Example 85, (S)-quinuclidin-3-yl (2,2-dimethyl-5-(p-tolyl)-2,3-dihydro-1H-inden-1-yl)carbamate] gave a pIC50 of 7.94.

The molecule `CC1(C)Cc2cc(-c3ccc(OC(F)F)cc3)ccc2C1NC(=O)O[C@@H]1CN2CCC1CC2` (stereo partly drawn) [Example 86, (S)-quinuclidin-3-yl (5-(4-(difluoromethoxy)phenyl)-2,2-dimethyl-2,3-dihydro-1H-inden-1-yl)carbamate] showed a negative-log IC50 (pIC50) of 7.86. The pIC50 values of the last two molecules are within 0.2 log units of each other.

`CC1(C)Cc2cc(-c3ccc(F)c(F)c3)ccc2C1NC(=O)O[C@@H]1CN2CCC1CC2` (stereo partly drawn) [Example 87, (S)-quinuclidin-3-yl (5-(3,4-difluorophenyl)-2,2-dimethyl-2,3-dihydro-1H-inden-1-yl)carbamate]: the pIC50 is 7.37.

On to `CC1(C)Cc2cc(-c3cc(F)ccc3F)ccc2C1NC(=O)O[C@@H]1CN2CCC1CC2` (stereo partly drawn) [Example 88, (S)-quinuclidin-3-yl (5-(2,5-difluorophenyl)-2,2-dimethyl-2,3-dihydro-1H-inden-1-yl)carbamate], for which the pIC50 is 7.95.

The molecule `CC1(C)Cc2cc(-c3ccc(F)cc3F)ccc2C1NC(=O)O[C@@H]1CN2CCC1CC2` (stereo partly drawn) [Example 89, (S)-quinuclidin-3-yl (5-(2,4-difluorophenyl)-2,2-dimethyl-2,3-dihydro-1H-inden-1-yl)carbamate] gave a negative logarithm of the IC50 (pIC50) of 7.30.

`CC1(C)Cc2cc(-c3cc(F)cc(F)c3)ccc2C1NC(=O)O[C@@H]1CN2CCC1CC2` (stereo partly drawn) [Example 90, (S)-quinuclidin-3-yl (5-(3,5-difluorophenyl)-2,2-dimethyl-2,3-dihydro-1H-inden-1-yl)carbamate] had a pIC50 of 7.42. The pIC50 values of the last two molecules are within 0.2 log units of each other.

For the molecule `CC1(C)Cc2cc(-c3cccc(F)c3F)ccc2C1NC(=O)O[C@@H]1CN2CCC1CC2` (stereo partly drawn) [Example 91, (S)-quinuclidin-3-yl (5-(2,3-difluorophenyl)-2,2-dimethyl-2,3-dihydro-1H-inden-1-yl)carbamate], the negative logarithm of the IC50 (pIC50) is 7.60.

As to `CC1(C)Cc2cc(-c3ccc(Cl)c(Cl)c3)ccc2C1NC(=O)O[C@@H]1CN2CCC1CC2` (stereo partly drawn) [Example 92, (S)-quinuclidin-3-yl (5-(3,4-dichlorophenyl)-2,2-dimethyl-2,3-dihydro-1H-inden-1-yl)carbamate], the pIC50 was 7.36.

In turn, `CC1(C)Cc2cc(-c3cc(Cl)ccc3Cl)ccc2C1NC(=O)O[C@@H]1CN2CCC1CC2` (stereo partly drawn) [Example 93, (S)-quinuclidin-3-yl (5-(2,5-dichlorophenyl)-2,2-dimethyl-2,3-dihydro-1H-inden-1-yl)carbamate] had a pIC50 of 7.98. Against the preceding molecule, the pIC50 is 0.62 log units higher.

Molecule `CC1(C)Cc2cc(-c3cc(Cl)cc(Cl)c3)ccc2C1NC(=O)O[C@@H]1CN2CCC1CC2` (stereo partly drawn) [Example 94, (S)-quinuclidin-3-yl (5-(3,5-dichlorophenyl)-2,2-dimethyl-2,3-dihydro-1H-inden-1-yl)carbamate] gave a negative logarithm of the IC50 (pIC50) of 7.63.

Regarding `CC1(C)Cc2cc(-c3ccc(F)c(F)c3F)ccc2C1NC(=O)O[C@@H]1CN2CCC1CC2` (stereo partly drawn) [Example 95, (S)-quinuclidin-3-yl (2,2-dimethyl-5-(2,3,4-trifluorophenyl)-2,3-dihydro-1H-inden-1-yl)carbamate], the negative logarithm of the IC50 (pIC50) is 7.30.

As to `CC1(C)Cc2cc(-c3cc(F)c(F)cc3F)ccc2C1NC(=O)O[C@@H]1CN2CCC1CC2` (stereo partly drawn) [Example 96, (S)-quinuclidin-3-yl (2,2-dimethyl-5-(2,4,5-trifluorophenyl)-2,3-dihydro-1H-inden-1-yl)carbamate], the pIC50 is 7.79.

On to `COCCOc1ccc(-c2ccc3c(c2)CC(C)(C)C3NC(=O)O[C@@H]2CN3CCC2CC3)cc1` (stereo partly drawn) [Example 97, (S)-quinuclidin-3-yl (5-(4-(2-methoxyethoxy)phenyl)-2,2-dimethyl-2,3-dihydro-1H-inden-1-yl)carbamate], for which the negative logarithm of the IC50 (pIC50) is 8.03.

Take `COCCOc1cccc(-c2ccc3c(c2)CC(C)(C)C3NC(=O)O[C@@H]2CN3CCC2CC3)c1` (stereo partly drawn) [Example 98, (S)-quinuclidin-3-yl (5-(3-(2-methoxyethoxy)phenyl)-2,2-dimethyl-2,3-dihydro-1H-inden-1-yl)carbamate]: the pIC50 is 8.12.

`COCCOc1ccccc1-c1ccc2c(c1)CC(C)(C)C2NC(=O)O[C@@H]1CN2CCC1CC2` (stereo partly drawn) [Example 99, (S)-quinuclidin-3-yl (5-(2-(2-methoxyethoxy)phenyl)-2,2-dimethyl-2,3-dihydro-1H-inden-1-yl)carbamate] had a negative logarithm of the IC50 (pIC50) of 7.65.

Consider `COCOc1ccc(-c2ccc3c(c2)CC(C)(C)C3NC(=O)O[C@@H]2CN3CCC2CC3)cc1` (stereo partly drawn) [Example 100, (S)-quinuclidin-3-yl (5-(4-(methoxymethoxy)phenyl)-2,2-dimethyl-2,3-dihydro-1H-inden-1-yl)carbamate], for which the pIC50 was 7.67.

The molecule `COCOc1cccc(-c2ccc3c(c2)CC(C)(C)C3NC(=O)O[C@@H]2CN3CCC2CC3)c1` (stereo partly drawn) [Example 101, (S)-quinuclidin-3-yl (5-(3-(methoxymethoxy)phenyl)-2,2-dimethyl-2,3-dihydro-1H-inden-1-yl)carbamate] gave a negative logarithm of the IC50 (pIC50) of 8.06.

`COCOc1ccccc1-c1ccc2c(c1)CC(C)(C)C2NC(=O)O[C@@H]1CN2CCC1CC2` (stereo partly drawn) [Example 102, (S)-quinuclidin-3-yl (5-(2-(methoxymethoxy)phenyl)-2,2-dimethyl-2,3-dihydro-1H-inden-1-yl)carbamate] had a negative-log IC50 (pIC50) of 7.76. Compared with the last molecule, the pIC50 is 0.30 log units lower.

Molecule `COc1cccc(-c2ccc3c(c2)CC(C)(C)C3NC(=O)O[C@@H]2CN3CCC2CC3)c1` (stereo partly drawn) [Example 103, (S)-quinuclidin-3-yl (5-(3-methoxyphenyl)-2,2-dimethyl-2,3-dihydro-1H-inden-1-yl)carbamate] had a negative logarithm of the IC50 (pIC50) of 7.71.

As for `CCOc1cccc(-c2ccc3c(c2)CC(C)(C)C3NC(=O)O[C@@H]2CN3CCC2CC3)c1` (stereo partly drawn) [Example 104, (S)-quinuclidin-3-yl (5-(3-ethoxyphenyl)-2,2-dimethyl-2,3-dihydro-1H-inden-1-yl)carbamate], the negative logarithm of the IC50 (pIC50) is 7.77.

`CC(C)Oc1cccc(-c2ccc3c(c2)CC(C)(C)C3NC(=O)O[C@@H]2CN3CCC2CC3)c1` (stereo partly drawn) [Example 105, (S)-quinuclidin-3-yl (5-(3-isopropoxyphenyl)-2,2-dimethyl-2,3-dihydro-1H-inden-1-yl)carbamate] had a pIC50 of 7.82.

`CN(C)c1cccc(-c2ccc3c(c2)CC(C)(C)C3NC(=O)O[C@@H]2CN3CCC2CC3)c1` (stereo partly drawn) [Example 106, (S)-quinuclidin-3-yl (5-(3-(dimethylamino)phenyl)-2,2-dimethyl-2,3-dihydro-1H-inden-1-yl)carbamate] had a pIC50 of 8.24.

The molecule `CSc1cccc(-c2ccc3c(c2)CC(C)(C)C3NC(=O)O[C@@H]2CN3CCC2CC3)c1` (stereo partly drawn) [Example 107, (S)-quinuclidin-3-yl (2,2-dimethyl-5-(3-(methylthio)phenyl)-2,3-dihydro-1H-inden-1-yl)carbamate] had a pIC50 of 8.20. The pIC50 values of the last two molecules are within 0.2 log units of each other.

In general, pIC50 refers to −log10 of the IC50, conventionally taken in molar units.

Values taken from US12522602B2, “Derivatives having 2,3-dihydro-1H-indene or 2,3-dihydrobenzofuran moiety or pharmaceutically acceptable salt thereof and pharmaceutical compositions comprising the same” (YUHAN CORPORATION, priority 2019, dated 2026).
